Key:
[1] = system: human CCK-2 receptor transfected A431 cells; test: Biodistribution studies in CD1 nu/nu mice bearing CCK-2 receptor positive and mock A431 tumours; type: in vivo
Protocol: PP-F11N has been investigated according to the CD1 nu/nu mice model. […] FIG. 2 illustrates the biodistribution of PP-F11, PP-F11N and oxidized PP-F11 ox (oxidized PP-F11) after 4 hours in the athymic CD1 nu/nu mice model. Tumour positive: with human CCK-2 receptor transfected A431 cells on one side of the mouse; tumor negative: CCK-2 receptor negative A431 cells on the other side of the mouse. The effect of the higher tumor uptake by the exchange of methionine with norleucine is specifically apparent with compounds having the DGlu6 sequence, different from compounds having a sequence with DGLn6 which is referred to as PP-F10.
CD1 nu/nu mice were injected with 5×10^6 A431 cells. CCK-2 receptor positive A431 cells' were injected into one flank and mock cells on the other as an unspecific control. The tumors reach a weight of about 80 to 120 mg after about 10 days. 150-200 kBq (5 pmol) of the radiolabelled peptides were injected into the tail vein. Mice were killed by CO2 asphyxiation after defined time points post injection. The organs were dissected, weighted and the activity was measured. The % injected activity per gram (% i.A./g) was calculated. The animal experiments were approved by the local animal welfare committee and performed according to national regulations.

[2] = Stability of 177Lu-labelled mini-gastrin analogues in human serum/plasma, metabolites by HPLC; type: in vitro ADME; settings: human serum, radio-labelled with 177Lu, compared with PP-F11, PP-F10N and PP-F10
Protocol: 12 MBq of the radiolabelled compound was incubated in 2 mL fresh human plasma. A 40 μL probe was taken after 0, 1, 2, 18, 24, 48 and 72 h and added 200 μL (50% Methanol and 50% Acetonitril) in a Mini-UniPrep Filter. The solution is filtered after vortexing. 40 μL of the filtered solution is analyzed by HPLC.

[3] = biodistribution after 4 hours, athymic CD1 nu/nu mice

In the case of `CCCC[C@H](NC(=O)[C@H](Cc1c[nH]c2ccccc12)NC(=O)CNC(=O)[C@H](Cc1ccc(O)cc1)NC(=O)[C@H](C)NC(=O)[C@@H](CCC(=O)O)NC(=O)[C@@H](CCC(=O)O)NC(=O)[C@@H](CCC(=O)O)NC(=O)[C@@H](CCC(=O)O)NC(=O)[C@@H](CCC(=O)O)NC(=O)[C@@H](CCC(=O)O)NC(=O)CN1CCN(CC(=O)O)CCN(CC(=O)O)CCN(CC(=O)O)CC1)C(=O)N[C@@H](CC(=O)O)C(=O)N[C@@H](Cc1ccccc1)C(N)=O` [PP-F11N], the “accumulation in the kidneys” value [1, 3] is reported as “very few”, the tumor-noise ratio [1, 3] is reported as “very favorable” and the tumor uptake ([1]; biodistribution after 4 hours, athymic CD1 nu/nu mice, CCK-2 receptor positive A431 tumour) is reported as “significant higher”. The tumor-to-kidney ([1]; mouse, in vivo) was “best” and the pharmacologic stability [2] was “highest pharmacologic stability of all probands”.

Reference: US11623014B2, “Mini-gastrin analogue, in particular for use in CCK2 receptor positive tumour diagnosis and/or treatment” (Paul Scherrer Institut, priority 2013, dated 2023)
